Assay [1] addresses T1, EcoRI (Escherichia coli, UniProt P00642).
T1 construct: The first M is removed after translation in this protein; purchased New England Biolabs
The assay can be described thus: Nonspecific nuclease activity of EcoRI reaction mixture with peptide (plasmid DNA degradation). Format: biochemical. The following applies: EcoRI plus peptide 1:500, 3 h, n = 3. As to the method:
A recombinant plasmid, pCRII-TOPO (Invitrogen, Waltham, MA, USA), containing a PCR fragment of the full-length cDNA (978 bp) of the mouse odorant receptor OR23 [82, 83, 84, 85, 86] at the EcoRI cloning site (GAATTC) was used as a DNA substrate for EcoRI. […] This pCRII-TOPO-OR23 plasmid was prepared from TOP10F’ Escherichia coli (Invitrogen) using ATP Plasmid Mini Kit (ATP Biotech, Taipei, ROC). The plasmid solution was prepared at 40 ng/μL by adding autoclaved DNase-free RNase-free deionized H2O (Nippon Gene, Tokyo, Japan). The DNA concentrations were measured with a Qubit fluorometer (Invitrogen).
(§1) All master solutions and samples were prepared on ice. A single reaction tube contained the following common ingredients: autoclaved DNase-free RNase-free deionized H2O (12.5 μL) (Nippon Gene), 10× NE Buffer Mg^2+-free (2.0 μL), pCRII-TOPO-OR23 plasmid DNA (2.0 μL of 40 ng/μL solution), MgCl2 (1.5 μL of 0.20 mM solution), and EcoRI (1.0 μL). A master solution containing these ingredients without DMSO or a peptide was first prepared for the number of sample tubes. The master solution was aliquoted into 1.5 mL spin tubes (19.0 μL per tube). Then, 1.0 μL of DMSO or a peptide sample was added, and the mixture was incubated at 37 °C. A negative control with DMSO but without a peptide (“no peptide” control) was run in every assay. When the digestion efficiency was compared, another negative control with autoclaved DNase-free RNase-free H2O without EcoRI was prepared. After the reaction, the samples were quickly cooled on ice for ten minutes and then stored at −80 °C until agarose gel electrophoresis. The above protocol was conducted for all peptides (including BP19.5, BP19.5N, and BP19.5C) used in the present study unless otherwise noted.
This reaction mixture containing EcoRI and BP19.5 appeared to degrade the plasmid DNA entirely. […] The DNA concentration at 3 h was 3.297 ± 0.006 ng/μL without any peptide in the reaction mixture and 0.332 ± 0.003 ng/μL with BP19.5, indicating a statistically significant difference (n = 3; unpaired bi-sided Student’s t-test; p = 1.6 × 10^−11). […] Therefore, BP19.5 and its derivatives are likely to cause EcoRI to become a nonspecific nuclease. In other words, BP19.5 was likely a specificity/activity modifier of EcoRI instead of an inhibitor.

Assay [2] concerns the target T1, EcoRI. The assay can be described thus: Peptide inhibitor assay (PIA): EcoRI digestion of pCRII-TOPO-OR23 plasmid, fluorescence intensity of the excised OR23 band on agarose gel. The following applies: 3 h; for level of inhibitory effect on EcoRI (in words): EcoRI:peptide 1:500, relative fluorescence intensity, n = 3. The assay is classed as biochemical. As to the method:
Peptide synthesis was performed by GenScript Japan (Tokyo, Japan). All peptides were confirmed to be more than 75% pure via high-performance liquid chromatography (HPLC) and to have theoretical molecular weights via mass spectrometry (MS). The peptides were dissolved in DMSO (dimethyl sulfoxide) and were prepared at 5.59 × 10^−9 mol/μL (5.59 mM). When 1.0 μL of this peptide mixture was mixed in a tube for the inhibition of EcoRI catalytic activity, the molar ratio of EcoRI to peptide was 1:500. This concentration in molar equivalence was used throughout this study unless otherwise noted.
Purified and concentrated EcoRI (20,000 U/mL, approximately 338 μg/mL, 1.12 × 10^−[…]) was obtained from New England Biolabs (Ipswich, MA, USA). To quantify and visualize the inhibitory effects of the peptides, the enzymatic reaction conditions were set so that at least three hours of incubation were required to completely digest the substrate plasmid DNA with EcoRI. To do so, we used a low Mg^2+ concentration (0.015 mM) in the reaction mixture in contrast to the optimum concentration of Mg^2+ for EcoRI (10 mM).
as §1
To quantify EcoRI activity after incubation of a reaction mixture, digested pCRII-TOPO-OR23 plasmid DNA was examined via agarose gel electrophoresis. We first prepared a 25 mL solution of 1.0% agarose (Nippon Gene) in TAE (Tris-acetate-EDTA) buffer (Promega, Madison, WI, USA) to produce an agarose gel. An ethidium bromide solution (0.5 μL of 10 mg/mL) (Promega) was added before gelation. After incubation with EcoRI, the fluorescence intensity of the band of the excised OR23 fragment was measured via an ImageQuant LAS4000 (GE Healthcare Japan, Tokyo, Japan) with the following conditions: “Exposure Type”: Precision; “Exposure Time”: Manual 1/8 sec; “Sensitivity/Resolution”: Standard; and “Fluorescent Method”: Epi illumination; EtBr; UV (Trans UV) light; 6-5DF50 Filter; and F2.8 Iris.
For statistical analyses, Student’s t-test (unpaired and bi-sided), Dunnett’s test, and Pearson correlation analysis were performed via Microsoft Excel (Office 365) and JSTAT (Yokohama, Japan). The Dunnett’s test was performed for each experimental group that was examined simultaneously in the laboratory, in comparison to the “no peptide” control group that was examined simultaneously. The repeated measure mode of the Dunnett’s test was used on the assumption that there was no interaction between samples.

“Also recorded” adds a separate entry of the source.

T1 sequence (P00642 2-277): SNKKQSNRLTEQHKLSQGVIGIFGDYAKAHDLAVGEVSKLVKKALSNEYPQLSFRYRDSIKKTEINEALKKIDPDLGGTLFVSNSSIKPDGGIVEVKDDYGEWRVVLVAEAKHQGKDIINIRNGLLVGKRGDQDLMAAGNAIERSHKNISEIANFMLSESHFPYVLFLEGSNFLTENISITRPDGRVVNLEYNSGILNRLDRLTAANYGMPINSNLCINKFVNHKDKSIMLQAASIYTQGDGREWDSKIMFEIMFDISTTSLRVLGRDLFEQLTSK

With AANYGMPINSNL [BP19], the “plasmid DNA degradation / nonspecific nuclease induction (agarose gel electrophoresis, in words)” value at EcoRI [1] was “did not have such an induction ability”. Besides, the “level of inhibitory effect on EcoRI (in words)” value on EcoRI [2] is “did not show high inhibition”. For the substance “PINSNL [BP19.5N, deletion peptide from BP19.5]”, on EcoRI [1], the “plasmid DNA degradation / nonspecific nuclease induction (agarose gel electrophoresis, in words)” value is listed as “no DNA was detected; also recorded: induced such nuclease activity”.

As to “NLCINK [BP19.5C, deletion peptide from BP19.5]”, the “plasmid DNA degradation / nonspecific nuclease induction (agarose gel electrophoresis, in words)” value on EcoRI [1] is recorded as “no DNA was detected; also recorded: induced such nuclease activity”.

Regarding NLCINKFVNHKDK [BP20], the “plasmid DNA degradation / nonspecific nuclease induction (agarose gel electrophoresis, in words)” value on EcoRI [1] is “does not induce nuclease activity”. In addition, the “level of inhibitory effect on EcoRI (in words)” value at EcoRI [2] is given as “especially notable; also recorded: strong inhibitory effect; also recorded: most effective”. Further, the “relative fluorescence intensity of excised OR23 fragment” value on EcoRI [2] (relative to no peptide, EcoRI:peptide 1:500 molar ratio, 37 °C, 0.015 mM Mg2+, mean of n = 3) is “less than 0.3”. As to PINSNLCINK [BP19.5], the “plasmid DNA degradation / nonspecific nuclease induction (agarose gel electrophoresis, in words)” value at EcoRI [1] is listed as “no DNA fragment or plasmid DNA was detected”. Besides, the “DNA concentration at 3 h in the reaction mixture” value at EcoRI [1] (no peptide 3.297 ± 0.006) came to 0.332 ± 0.003 ng/µL.

Source of the values: paper PMC11755562, “Peptide Inhibitor Assay for Allocating Functionally Important Accessible Sites Throughout a Protein Chain: Restriction Endonuclease EcoRI as a Model Protein System” (BioTech, 2024).
